Laboratory results reported in the NIST ThermoML archive (doi:10.1021/je0340809).

Assay: xn = mol fraction of the nth substance listed
Details: 101.3 kPa, Liquid

CN1CCCC1=O [N-methylpyrrolidone] + O
Details	mass density [kg/m3]	speed of sound [m/s]	viscosity [mPa·s]
298.15 K, x2 = 0.0522	1029.55	1548.8	1.721
298.15 K, x2 = 0.1684	1032.9	1561	1.985
298.15 K, x2 = 0.2465	1035.15	1579.5	2.147
298.15 K, x2 = 0.3481	1038.13	1616.8	2.535
298.15 K, x2 = 0.4534	1041.65	1653.8	3.346
298.15 K, x2 = 0.5018	1043.41	1667.7	3.838
298.15 K, x2 = 0.5493	1045.11	1682	4.338
298.15 K, x2 = 0.6504	1047.71	1711.3	5.159
298.15 K, x2 = 0.752	1046.06	1738.2	5.071
298.15 K, x2 = 0.8536	1035.21	1748.1	3.65
298.15 K, x2 = 0.8742	1031.43	1738.4	3.224
298.15 K, x2 = 0.8849	1029.24	1730.9	2.992
298.15 K, x2 = 0.8996	1025.97	1716.8	2.668
298.15 K, x2 = 0.9257	1019.43	1681.1	2.093
298.15 K, x2 = 0.9368	1016.38	1661	1.857
298.15 K, x2 = 0.9557	1010.88	1621.2	1.487
298.15 K, x2 = 0.9641	1008.33	1600.8	1.338
298.15 K, x2 = 0.9754	1004.82	1571.3	1.16
298.15 K, x2 = 0.99	1000.21	1529.1	0.978
308.15 K, x2 = 0.0522	1020.49	1521.3	1.405
308.15 K, x2 = 0.1684	1023.58	1533.3	1.588
308.15 K, x2 = 0.2465	1025.1	1549.9	1.702
308.15 K, x2 = 0.3481	1028.58	1578.3	1.979
308.15 K, x2 = 0.4534	1032.02	1610.1	2.567
308.15 K, x2 = 0.5018	1033.74	1624.8	2.925
308.15 K, x2 = 0.5493	1035.39	1639.5	3.289
308.15 K, x2 = 0.6504	1037.97	1672	3.885
308.15 K, x2 = 0.752	1036.73	1702.6	3.814
308.15 K, x2 = 0.8536	1027.32	1707.3	2.76
308.15 K, x2 = 0.8742	1024.02	1700.3	2.446
308.15 K, x2 = 0.8849	1022.1	1694.9	2.273
308.15 K, x2 = 0.8996	1019.23	1685.4	2.034
308.15 K, x2 = 0.9257	1013.52	1661.1	1.609
308.15 K, x2 = 0.9368	1010.86	1647.4	1.435
308.15 K, x2 = 0.9557	1006.06	1618.8	1.16
308.15 K, x2 = 0.9641	1003.83	1603.6	1.051
308.15 K, x2 = 0.9754	1000.77	1580.6	0.92
308.15 K, x2 = 0.99	996.769	1546.1	0.785
318.15 K, x2 = 0.0522	1011.19	1480.9	1.232
318.15 K, x2 = 0.1684	1014.09	1493	1.35
318.15 K, x2 = 0.2465	1016.08	1508.9	1.429
318.15 K, x2 = 0.3481	1018.81	1535.9	1.613
318.15 K, x2 = 0.4534	1022.08	1566.5	2.03
318.15 K, x2 = 0.5018	1023.72	1580.9	2.287
318.15 K, x2 = 0.5493	1025.31	1595.4	2.547
318.15 K, x2 = 0.6504	1027.9	1628.2	2.973
318.15 K, x2 = 0.752	1027.12	1661.2	2.905
318.15 K, x2 = 0.8536	1019.09	1674.5	2.117
318.15 K, x2 = 0.8742	1016.22	1670.7	1.882
318.15 K, x2 = 0.8849	1014.55	1667.3	1.754
318.15 K, x2 = 0.8996	1012.06	1660.9	1.576
318.15 K, x2 = 0.9257	1007.08	1643.6	1.261
318.15 K, x2 = 0.9368	1004.77	1633.5	1.13
318.15 K, x2 = 0.9557	1000.59	1611.9	0.928
318.15 K, x2 = 0.9641	998.66	1600.4	0.845
318.15 K, x2 = 0.9754	996.013	1582.7	0.747
318.15 K, x2 = 0.99	992.557	1556.1	0.645
328.15 K, x2 = 0.0522	1002.19	1451.9	1.124
328.15 K, x2 = 0.1684	1004.9	1463.8	1.194
328.15 K, x2 = 0.2465	1006.77	1478.8	1.234
328.15 K, x2 = 0.3481	1009.34	1504.2	1.357
328.15 K, x2 = 0.4534	1012.42	1533.2	1.647
328.15 K, x2 = 0.5018	1013.98	1547.1	1.827
328.15 K, x2 = 0.5493	1015.5	1561.1	2.011
328.15 K, x2 = 0.6504	1018.05	1593.5	2.308
328.15 K, x2 = 0.752	1017.63	1627.4	2.241
328.15 K, x2 = 0.8536	1010.77	1646.4	1.645
328.15 K, x2 = 0.8742	1008.28	1645	1.47
328.15 K, x2 = 0.8849	1006.83	1643.2	1.374
328.15 K, x2 = 0.8996	1004.66	1639.2	1.24
328.15 K, x2 = 0.9257	1000.32	1627.2	1.004
328.15 K, x2 = 0.9368	998.296	1619.9	0.907
328.15 K, x2 = 0.9557	994.66	1603.9	0.753
328.15 K, x2 = 0.9641	992.982	1595.2	0.692
328.15 K, x2 = 0.9754	990.687	1581.7	0.618
328.15 K, x2 = 0.99	987.705	1561.2	0.541
338.15 K, x2 = 0.0522	993.182	1410.7	0.987
338.15 K, x2 = 0.1684	995.706	1422.8	1.026
338.15 K, x2 = 0.2465	997.455	1437.4	1.048
338.15 K, x2 = 0.3481	999.87	1461.9	1.129
338.15 K, x2 = 0.4534	1002.78	1490.2	1.332
338.15 K, x2 = 0.5018	1004.25	1504	1.46
338.15 K, x2 = 0.5493	1005.71	1518	1.591
338.15 K, x2 = 0.6504	1008.2	1551	1.799
338.15 K, x2 = 0.752	1008.09	1587.1	1.74
338.15 K, x2 = 0.8536	1002.25	1613.3	1.292
338.15 K, x2 = 0.8742	1000.1	1614.4	1.161
338.15 K, x2 = 0.8849	998.836	1614.4	1.089
338.15 K, x2 = 0.8996	996.948	1613	0.99
338.15 K, x2 = 0.9257	993.171	1602.6	0.813
338.15 K, x2 = 0.9368	991.416	1602.1	0.74
338.15 K, x2 = 0.9557	988.261	1591.8	0.627
338.15 K, x2 = 0.9641	986.808	1585.9	0.58
338.15 K, x2 = 0.9754	984.827	1576.7	0.524
338.15 K, x2 = 0.99	982.266	1562.4	0.467
